Source: ChEMBL document CHEMBL6153096, “Development of Potent and Selective CK1α Molecular Glue Degraders” (J Med Chem, 2025)
Each block holds one compound with its values, some of them ahead of it. Activity calls are given as the source filed them. The calls are words filed in the database; no cut-off is given here.

Experiments:
[1] = target: T1, Cereblon/Casein kinase I alpha (Homo sapiens, UniProt P48729+Q96SW2); test: Molecular glue activity at CRBN/HiBiT-tagged CK1-alpha in human Jurkat cells assessed as induction of CK1-alpha degradation incubated for 5 hrs by Nano-Glo HiBiT assay; assay type: cell-based
[2] = target: Zinc finger protein Aiolos (Homo sapiens) (UniProt Q9UKT9); test: Induction of IKZF3 degradation in human MOLT-4 cells at 1 uM incubated for 5 hrs by quantitative mass spectrometry based proteomic analysis; assay type: cell-based
Chain of Zinc finger protein Aiolos (Homo sapiens) (Q9UKT9 whole entry): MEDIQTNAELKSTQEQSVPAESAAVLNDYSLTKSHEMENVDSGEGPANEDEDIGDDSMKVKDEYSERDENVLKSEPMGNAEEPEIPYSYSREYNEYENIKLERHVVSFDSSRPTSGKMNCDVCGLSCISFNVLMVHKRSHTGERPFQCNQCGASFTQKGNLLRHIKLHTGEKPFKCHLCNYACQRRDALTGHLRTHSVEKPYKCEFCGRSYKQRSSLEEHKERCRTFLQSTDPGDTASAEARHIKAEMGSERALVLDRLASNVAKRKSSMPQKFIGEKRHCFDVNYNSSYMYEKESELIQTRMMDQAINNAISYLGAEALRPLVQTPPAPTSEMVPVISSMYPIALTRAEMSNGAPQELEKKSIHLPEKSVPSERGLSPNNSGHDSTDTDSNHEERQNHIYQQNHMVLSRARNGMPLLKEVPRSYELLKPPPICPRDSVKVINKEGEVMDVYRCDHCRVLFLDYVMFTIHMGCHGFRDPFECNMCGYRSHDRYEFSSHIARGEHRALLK

MOLT-4 [3] = test: Induction of GSPT1 degradation in human MOLT-4 cells at 1 uM incubated for 5 hrs by quantitative mass spectrometry based proteomic analysis; assay type: cell-based
MOLT-4 [4] = test: Induction of WEE1 degradation in human MOLT-4 cells at 1 uM incubated for 5 hrs by quantitative mass spectrometry based proteomic analysis; assay type: cell-based
MOLT-4 [5] = test: Induction of IKZF1 degradation in human MOLT-4 cells at 1 uM incubated for 5 hrs by quantitative mass spectrometry based proteomic analysis; assay type: cell-based
[6] = target: T1, Cereblon/Casein kinase I alpha; test: Molecular glue activity at CRBN/CK1-alpha in human MOLM-14 cells assessed as induction of CK1-alpha degradation at 1 uM incubated for 5 hrs by Western blot analysis; assay type: cell-based
Target sequence in this assay (P48729 2-337 limits assumed): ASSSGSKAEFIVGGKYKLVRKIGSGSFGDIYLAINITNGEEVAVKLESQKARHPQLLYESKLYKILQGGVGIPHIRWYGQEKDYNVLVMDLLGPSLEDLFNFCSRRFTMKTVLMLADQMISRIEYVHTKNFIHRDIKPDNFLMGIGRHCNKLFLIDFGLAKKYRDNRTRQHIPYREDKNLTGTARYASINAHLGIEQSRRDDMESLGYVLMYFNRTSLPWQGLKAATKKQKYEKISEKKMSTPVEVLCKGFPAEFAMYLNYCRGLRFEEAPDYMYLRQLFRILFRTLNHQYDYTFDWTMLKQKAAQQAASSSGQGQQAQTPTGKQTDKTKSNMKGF
Target sequence in this assay (Q96SW2 whole entry partner): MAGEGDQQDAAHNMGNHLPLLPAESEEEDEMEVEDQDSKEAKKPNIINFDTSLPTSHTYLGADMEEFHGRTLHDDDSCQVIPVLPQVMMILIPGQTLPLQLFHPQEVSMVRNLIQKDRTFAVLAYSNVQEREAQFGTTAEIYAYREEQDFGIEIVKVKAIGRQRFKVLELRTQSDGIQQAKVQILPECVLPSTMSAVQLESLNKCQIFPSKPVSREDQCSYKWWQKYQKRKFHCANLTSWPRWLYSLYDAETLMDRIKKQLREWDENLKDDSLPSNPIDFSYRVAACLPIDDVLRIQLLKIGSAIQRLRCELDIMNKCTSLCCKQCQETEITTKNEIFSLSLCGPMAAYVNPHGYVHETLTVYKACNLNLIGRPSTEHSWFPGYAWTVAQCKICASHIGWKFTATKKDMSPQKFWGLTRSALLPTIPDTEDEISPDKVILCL

[7] = target: T1, Cereblon/Casein kinase I alpha; test: Molecular glue activity at CRBN/CK1-alpha in human MOLM-13 cells assessed as induction of CK1-alpha degradation at 1 uM incubated for 5 hrs by Western blot analysis; assay type: cell-based
Target sequence in this assay (P48729 2-337 limits assumed): as the sequence (P48729 2-337 limits assumed) above
Target sequence in this assay (Q96SW2 whole entry partner): as the sequence (Q96SW2 whole entry partner) above

[8] = target: T1, Cereblon/Casein kinase I alpha; test: Molecular glue activity at CRBN/CK1-alpha in human MOLM-14 cells assessed as increase in MDM2 level at 0.1 to 1 uM incubated for 24 hrs by Western blot analysis; assay type: cell-based; conditions: dose 0.1-1 µM
Target sequence in this assay (P48729 2-337 limits assumed): as the sequence (P48729 2-337 limits assumed) above
Target sequence in this assay (Q96SW2 whole entry partner): as the sequence (Q96SW2 whole entry partner) above

[9] = target: T1, Cereblon/Casein kinase I alpha; test: Molecular glue activity at CRBN/CK1-alpha in human MOLM-13 cells assessed as increase in MDM2 level at 0.1 to 1 uM incubated for 24 hrs by Western blot analysis; assay type: cell-based; conditions: dose 0.1-1 µM
Target sequence in this assay (P48729 2-337 limits assumed): as the sequence (P48729 2-337 limits assumed) above
Target sequence in this assay (Q96SW2 whole entry partner): as the sequence (Q96SW2 whole entry partner) above

[10] = target: T1, Cereblon/Casein kinase I alpha; test: Molecular glue activity at CRBN/CK1-alpha in human MOLM-14 cells assessed as increase in p21 level at 0.1 to 1 uM incubated for 24 hrs by Western blot analysis; assay type: cell-based; conditions: dose 0.1-1 µM
Target sequence in this assay (P48729 2-337 limits assumed): as the sequence (P48729 2-337 limits assumed) above
Target sequence in this assay (Q96SW2 whole entry partner): as the sequence (Q96SW2 whole entry partner) above

[11] = target: T1, Cereblon/Casein kinase I alpha; test: Molecular glue activity at CRBN/CK1-alpha in human MOLM-14 cells assessed as increase in p53 level at 0.1 to 1 uM incubated for 24 hrs by Western blot analysis; assay type: cell-based; conditions: dose 0.1-1 µM
Target sequence in this assay (P48729 2-337 limits assumed): as the sequence (P48729 2-337 limits assumed) above
Target sequence in this assay (Q96SW2 whole entry partner): as the sequence (Q96SW2 whole entry partner) above

[12] = target: T1, Cereblon/Casein kinase I alpha; test: Molecular glue activity at CRBN/CK1-alpha in human MOLM-13 cells assessed as increase in p53 level at 0.1 to 1 uM incubated for 24 hrs by Western blot analysis; assay type: cell-based; conditions: dose 0.1-1 µM
[13] = target: T1, Cereblon/Casein kinase I alpha; test: Molecular glue activity at CRBN/CK1-alpha in human MOLT-4 cells with CRBN-/- assessed as induction of CK1-alpha degradation at 1 uM incubated for 5 hrs by quantitative mass spectrometry based proteomic analysis; assay type: cell-based
[14] = target: T1, Cereblon/Casein kinase I alpha; test: Molecular glue activity at CRBN/CK1-alpha in human MOLM-13 cells assessed as increase in p21 level at 0.1 to 1 uM incubated for 24 hrs by Western blot analysis; assay type: cell-based; conditions: dose 0.1-1 µM
MOLM-14 [15] = test: Antiproliferative activity against human MOLM-14 cells incubated for 72 hrs by CellTiter-Glo Luminescent Cell Viability Assay; assay type: functional, cell-based
MOLM-14 [16] = test: Antiproliferative activity against human MOLM-14 cells with CRBN-/- incubated for 72 hrs by CellTiter-Glo Luminescent Cell Viability Assay; assay type: functional, cell-based
[17] = Metabolic stability in human liver microsomes assessed as intrinsic clearance; assay type: ADME, Microsome
[18] = Metabolic stability in human liver microsomes assessed as half life; assay type: ADME, Microsome
MOLM-13 = test: Antiproliferative activity against human MOLM-13 cells incubated for 72 hrs by CellTiter-Glo Luminescent Cell Viability Assay; assay type: functional, cell-based; conditions: MOLM-13, 72 h
[19] = Metabolic stability in mouse liver microsomes assessed as intrinsic clearance; assay type: ADME, Microsome
[20] = Metabolic stability in mouse liver microsomes assessed as half life; assay type: ADME, Microsome; conditions: microsomes

SMILES: O=C1CCC(N2Cc3cc(NC(=O)c4cn5cc(Cl)ccc5n4)ccc3C2=O)C(=O)N1 (stereo unspecified)
DC50 [1]: 1.3 nM | EC90 [1]: 14.9 nM

SMILES: CN1C(=O)CCC(N2Cc3cc(NC(=O)c4cn5ccccc5n4)ccc3C2=O)C1=O (stereo unspecified)
Activity [6]: Active | DC50 [1]: > 10000 nM | Activity [7]: Active

SMILES: O=C1CCC(N2Cc3cc(CNC(=O)c4cnc5ccccc5c4)ccc3C2=O)C(=O)N1 (stereo unspecified)
DC50 [1]: > 10000 nM

SMILES: O=C1CCC(N2Cc3cc(NC(=O)c4nc5ccccc5[nH]4)ccc3C2=O)C(=O)N1 (stereo unspecified)
DC50 [1]: 11.1 nM

SMILES: O=C1CCC(N2Cc3cc(CNC(=O)c4cn5ccccc5n4)ccc3C2=O)C(=O)N1 (stereo unspecified)
DC50 [1]: > 10000 nM

SMILES: COc1ccn2cc(C(=O)Nc3ccc4c(c3)CN(C3CCC(=O)NC3=O)C4=O)nc2c1 (stereo unspecified)
DC50 [1]: 3.1 nM | EC90 [1]: 53 nM

SMILES: O=C1CCC(N2Cc3cc(NC(=O)c4cc5ccccn5c4)ccc3C2=O)C(=O)N1 (stereo unspecified)
DC50 [1]: 87 nM

SMILES: O=C1CCC(N2Cc3cc(NC(=O)c4cnc5ccccc5n4)ccc3C2=O)C(=O)N1 (stereo unspecified)
DC50 [1]: 8.8 nM

Now from value to compound, other results behind:

DC50 [1]: 138 nM
SMILES: O=C1CCC(N2Cc3c(CNC(=O)c4cnc5ccccc5c4)cccc3C2=O)C(=O)N1 (stereo unspecified)

DC50 [1]: 17.5 nM | EC90 [1]: 135 nM
SMILES: O=C1CCC(N2Cc3cc(NC(=O)c4cn5ccc(F)cc5n4)ccc3C2=O)C(=O)N1 (stereo unspecified)

Activity [2]: inactive | DC50 [1]: 7.56 nM
SMILES: O=C1CCC(N2Cc3cc(NC(=O)c4cc5ccccc5cn4)ccc3C2=O)C(=O)N1 (stereo unspecified)
Activity (MOLT-4 [3]): inactive | Activity (MOLT-4 [4]): inactive | Activity (MOLT-4 [5]): inactive

Activity [8]: Active | Activity [9]: Active | Activity [10]: Active | Activity [11]: Active | Activity [12]: Active | Activity [14]: Active
SMILES: O=C1CCC(N2Cc3cc(Nc4noc5ccccc45)ccc3C2=O)C(=O)N1 (stereo unspecified)
Activity [13]: Not active; Compound Induced Ck1-Alpha Degradation In A Crbn Dependent Manner

DC50 [1]: 88 nM
SMILES: O=C1CCC(N2C(=O)c3ccc(NC(=O)c4cn5ccccc5n4)cc3C2=O)C(=O)N1 (stereo unspecified)

DC50 [1]: > 10000 nM
SMILES: O=C1CCC(N2Cc3ccc(NC(=O)c4cn5ccccc5n4)cc3C2=O)C(=O)N1 (stereo unspecified)

DC50 [1]: 82 nM
SMILES: O=C1CCC(N2Cc3cc(NC(=O)c4cnc5ccccn45)ccc3C2=O)C(=O)N1 (stereo unspecified)

Activity [6]: Active | CLH [17]: 21 µL/min/mg | DC50 [1]: 1.1 nM | EC90 [1]: 16.2 nM | t1/2 [18]: 0.553 h | IC50 (MOLM-13): 23 nM | Activity [7]: Active | CLH [19]: < 6 µL/min/mg | t1/2 [20]: > 2 h
SMILES: COc1ccc2nc(C(=O)Nc3ccc4c(c3)CN(C3CCC(=O)NC3=O)C4=O)cn2c1 (stereo unspecified)
Activity (MOLM-14 [15]): Active | Activity (MOLM-14 [16]): inactive
